Test: Brain exposure comparison of five radioligands
Type: in vivo, human
Details: in vivo
Method: Another complicating factor is low delivery to brain (i.e., low drug exposure), which may have cause low brain uptake. We compared five different radioligands from previous studies with regard to exposure to brain (Table 3) and measured the area under the curve of plasma concentration vs. time from 0 to 20 min. […] The effective exposure was thus named because only the free concentration of drug can cross the blood–brain barrier. ^11C-LY2428703 had the highest exposure value among the tracers tested. This high exposure was due to the slow wash-out of the tracer from the vascular compartment and to negligible metabolism in plasma, that is, parent radioligand represented 99% of plasma radioactivity even at the end of the 2-h scanning session.

- Brain peak SUV: ~0.5 SUV
- Effective exposure (E × fp): 0.19
Structure (SMILES): Cc1c(-c2ccc(O[11CH3])cc2)nsc1NC(=O)[C@@H]1C[C@H]1C [^11C-LY2428703]

From paper PMC3683333, “^11C-LY2428703, a positron emission tomographic radioligand for the metabotropic glutamate receptor 1, is unsuitable for imaging in monkey and human brains” (EJNMMI Research, 2013)
